We go through 40 molecules from patent publication US9249131B2, “Modulators of ATP-binding cassette transporters” (Vertex Pharmaceuticals Incorporated, priority 2003, dated 2016).

The target in the assay is T1, ΔF508-CFTR (Homo sapiens, UniProt P13569, DEL508-508).
T1 construct: expressed in transfected cells; host or cells: NIH3T3 mouse fibroblasts stably expressing ΔF508-CFTR for the optical, whole-cell and single-channel assays; Fisher rat epithelial (FRT) cells for Ussing chamber follow-up
Kind of assay: Assays for ΔF508-CFTR correction and potentiator properties (membrane potential optical and electrophysiological methods). It counts as cell-based. The settings on record: CFTR modulation; for % Activity: % Efficacy; for EC50: tested using the above methods. From the text:
Assays for Detecting and Measuring ΔF508-CFTR Correction and Potentiator Properties of Compounds
A) Membrane Potential Optical Methods for Assaying ΔF508-CFTR Modulation Properties of Compounds
The optical membrane potential assay utilized voltage-sensitive FRET sensors described by Gonzalez and Tsien (See, Gonzales, J. E. and R. Y. Tsien (1995) “Voltage sensing by fluorescence resonance energy transfer in single cells” Biophys J 69 (4): 1272-80, and Gonzalez, J. E. and R. Y. Tsien (1997) “Improved indicators of cell membrane potential that use fluorescence resonance energy transfer” Chem Biol 4 (4): 269-77) in combination with instrumentation for measuring fluorescence changes such as the Voltage/Ion Probe Reader (VIPR) (See, Gonzalez, J. E., K. Oades, et al. (1999) “Cell-based assays and instrumentation for screening ion-channel targets” Drug Discov Today 4 (9): 431-439).
These voltage sensitive assays are based on the change in fluorescence resonant energy transfer (FRET) between the membrane-soluble, voltage-sensitive dye, DiSBAC2 (3), and a fluorescent phospholipid, CC2-DMPE, which is attached to the outer leaflet of the plasma membrane and acts as a FRET donor. Changes in membrane potential (Vm) cause the negatively charged DiSBAC2(3) to redistribute across the plasma membrane and the amount of energy transfer from CC2-DMPE changes accordingly. The changes in fluorescence emission were monitored using VIPR™ II, which is an integrated liquid handler and fluorescent detector designed to conduct cell-based screens in 96- or 384-well microtiter plates.
To identify small molecules that correct the trafficking defect associated with ΔF508-CFTR; a single-addition HTS assay format was developed. The cells were incubated in serum-free medium for 16 hrs at 37° C. in the presence or absence (negative control) of test compound. As a positive control, cells plated in 384-well plates were incubated for 16 hrs at 27° C. to “temperature-correct” ΔF508-CFTR. The cells were subsequently rinsed 3× with Krebs Ringers solution and loaded with the voltage-sensitive dyes. To activate ΔF508-CFTR, […] and the CFTR potentiator, genistein ([…]), were added along with Cl^−-free medium to each well. The addition of Cl^−-free medium promoted Cl^− efflux in response to ΔF508-CFTR activation and the resulting membrane depolarization was optically monitored using the FRET-based voltage-sensor dyes.
To identify potentiators of ΔF508-CFTR, a double-addition HTS assay format was developed. During the first addition, a Cl^−-free medium with or without test compound was added to each well. After 22 sec, a second addition of Cl^−-free medium containing 2-10 µM forskolin was added to activate ΔF508-CFTR. The extracellular Cl^− concentration following both additions was 28 mM, which promoted Cl^− efflux in response to ΔF508-CFTR activation and the resulting membrane depolarization was optically monitored using the FRET-based voltage-sensor dyes.
• Bath Solution #1: (in mM) NaCl 160, KCl 4.5, CaCl2 2, MgCl2 1, HEPES 10, pH 7.4 with NaOH. • Chloride-free bath solution: Chloride salts in Bath Solution #1 are substituted with gluconate salts. • CC2-DMPE: Prepared as a 10 mM stock solution in DMSO and stored at −20° C. • DiSBAC2(3): Prepared as a 10 mM stock in DMSO and stored at −20° C. Cell Culture
NIH3T3 mouse fibroblasts stably expressing ΔF508-CFTR are used for optical measurements of membrane potential. The cells are maintained at 37° C. in 5% CO2 and 90% humidity in Dulbecco's modified Eagle's medium supplemented with 2 mM glutamine, 10% fetal bovine serum, 1×NEAA, β-ME, 1×pen/strep, and 25 mM HEPES in 175 cm^2 culture flasks. For all optical assays, the cells were seeded at 30,000/well in 384-well matrigel-coated plates and cultured for 2 hrs at 37° C. before culturing at 27° C. for 24 hrs. for the potentiator assay. For the correction assays, the cells are cultured at 27° C. or 37° C. with and without compounds for 16-24 hours.

Structures are written as SMILES.

T1 sequence (P13569 with tags, fused parts or gaps DEL508-508): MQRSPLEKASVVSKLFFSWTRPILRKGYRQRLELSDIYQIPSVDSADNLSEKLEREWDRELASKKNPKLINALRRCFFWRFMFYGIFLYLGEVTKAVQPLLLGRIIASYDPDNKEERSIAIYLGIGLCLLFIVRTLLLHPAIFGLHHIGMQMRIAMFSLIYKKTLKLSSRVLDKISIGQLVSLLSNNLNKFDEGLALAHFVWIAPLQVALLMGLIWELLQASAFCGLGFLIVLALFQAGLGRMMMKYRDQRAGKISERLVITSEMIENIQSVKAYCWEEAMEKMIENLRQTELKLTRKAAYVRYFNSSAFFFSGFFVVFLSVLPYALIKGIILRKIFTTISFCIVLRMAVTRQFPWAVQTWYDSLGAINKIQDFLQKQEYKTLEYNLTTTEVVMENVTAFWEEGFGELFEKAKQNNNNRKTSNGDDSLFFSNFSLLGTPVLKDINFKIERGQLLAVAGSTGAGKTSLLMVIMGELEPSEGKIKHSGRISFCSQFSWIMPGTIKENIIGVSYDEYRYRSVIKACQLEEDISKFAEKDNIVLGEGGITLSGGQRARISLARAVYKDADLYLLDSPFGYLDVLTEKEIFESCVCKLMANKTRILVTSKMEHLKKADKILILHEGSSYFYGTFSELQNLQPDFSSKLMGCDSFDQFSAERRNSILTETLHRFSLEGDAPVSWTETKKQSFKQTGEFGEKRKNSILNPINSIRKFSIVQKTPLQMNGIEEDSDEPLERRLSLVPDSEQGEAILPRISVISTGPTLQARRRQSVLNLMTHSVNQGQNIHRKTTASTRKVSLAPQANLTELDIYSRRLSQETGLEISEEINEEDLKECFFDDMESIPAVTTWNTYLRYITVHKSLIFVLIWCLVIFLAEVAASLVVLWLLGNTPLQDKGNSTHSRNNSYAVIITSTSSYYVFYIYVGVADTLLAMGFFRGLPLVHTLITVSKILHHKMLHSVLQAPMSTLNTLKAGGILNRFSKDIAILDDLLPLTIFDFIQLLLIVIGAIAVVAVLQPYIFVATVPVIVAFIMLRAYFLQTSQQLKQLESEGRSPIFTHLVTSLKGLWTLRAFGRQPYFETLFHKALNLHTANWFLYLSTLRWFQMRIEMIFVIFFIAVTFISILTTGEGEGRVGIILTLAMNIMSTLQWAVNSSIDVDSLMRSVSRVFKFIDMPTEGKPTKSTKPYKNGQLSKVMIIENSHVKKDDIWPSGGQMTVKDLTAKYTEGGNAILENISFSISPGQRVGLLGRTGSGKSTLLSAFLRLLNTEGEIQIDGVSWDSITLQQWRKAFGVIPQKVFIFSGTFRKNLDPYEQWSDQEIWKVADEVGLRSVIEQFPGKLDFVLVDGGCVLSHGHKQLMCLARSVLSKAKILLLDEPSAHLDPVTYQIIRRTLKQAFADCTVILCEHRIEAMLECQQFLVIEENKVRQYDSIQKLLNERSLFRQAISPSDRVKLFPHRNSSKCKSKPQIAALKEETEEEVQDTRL

`CCc1ccccc1OCC(=O)Nc1nc2ccccc2s1` [compound 63]: the “% Activity” value is “+++ (“+++” means >100%)” and the EC50 lay in the range of 10 to 25 µM.

Turning to `Cc1nc(NC(=O)COc2ccccc2C(C)C)sc1C` [compound 64], the “% Activity” value is reported as “+++ (“+++” means >100%)” and the concentration for a half-maximal effect (EC50) was under 10 µM.

Turning to `O=C(CN1CCCCC1)Nc1ncc(Cc2cccc3ccccc23)s1` [compound 65], the “% Activity” value was “++ (“++” means between 25% to 100%)” and the EC50 lay in the range of 10 to 25 µM.

Turning to `Cc1ccc(C(=O)Nc2nc(C)c(C)s2)cc1` [compound 66], the “% Activity” value is “++ (“++” means between 25% to 100%)” and the EC50 lay within 10 to 25 µM.

For `Cc1ccc(C(=O)Nc2nc(-c3ccccc3)cs2)cc1` [compound 67], the “% Activity” value was “++ (“++” means between 25% to 100%)” and the EC50 is 10 to 25 µM.

With `O=C(Nc1nc(-c2ccccc2)c(-c2ccccc2)s1)c1ccccc1` [compound 68], the “% Activity” value is reported as “++ (“++” means between 25% to 100%)” and the 50% effective concentration (EC50) was under 10 µM.

Turning to `COc1ccccc1-c1csc(NC(=O)c2ccccc2)n1` [compound 69], the “% Activity” value was “+++ (“+++” means >100%)” and the concentration for a half-maximal effect (EC50) was 10 to 25 µM.

With `Cc1cccc(C(=O)Nc2nc(-c3ccccc3)c(-c3ccccc3)s2)c1` [compound 70], the “% Activity” value is “+++ (“+++” means >100%)” and the EC50 is under 10 µM.

With `Cc1ccccc1C(=O)Nc1nc(-c2ccccc2)c(-c2ccccc2)s1` [compound 71], the “% Activity” value was “++ (“++” means between 25% to 100%)” and the EC50 was under 10 µM.

Take `COc1ccc(C(=O)Nc2nc(-c3ccccc3)c(-c3ccccc3)s2)cc1` [compound 72]: the “% Activity” value is “+++ (“+++” means >100%)” and the EC50 is under 10 µM.

`O=C(Nc1nc(-c2ccccc2)c(-c2ccccc2)s1)c1ccc(Cl)c(Cl)c1` [compound 73]: the “% Activity” value is “++ (“++” means between 25% to 100%)” and the 50% effective concentration (EC50) was 10 to 25 µM.

Turning to `O=C(Nc1nc(-c2ccccc2)c(-c2ccccc2)s1)c1ccc(Cl)cc1` [compound 74], the “% Activity” value is “++ (“++” means between 25% to 100%)” and the EC50 lay in the range of 10 to 25 µM.

With `Cc1ccccc1C(=O)Nc1nc(-c2ccccc2)cs1` [compound 75], the “% Activity” value was “++ (“++” means between 25% to 100%)” and the EC50 lay in the range of 10 to 25 µM.

As to `COc1ccccc1C(=O)Nc1nc(-c2ccccc2)cs1` [compound 76], the “% Activity” value is recorded as “+++ (“+++” means >100%)” and the half-maximal effective concentration (EC50) was in the range of 10 to 25 µM.

For `O=C(Nc1nc(-c2ccccc2)cs1)c1ccccc1Cl` [compound 77], the “% Activity” value is reported as “++ (“++” means between 25% to 100%)” and the half-maximal effective concentration (EC50) lay in the range of 10 to 25 µM.

With `COc1ccc(C(=O)Nc2nc(-c3ccccc3)cs2)cc1` [compound 78], the “% Activity” value is recorded as “++ (“++” means between 25% to 100%)” and the EC50 is 10 to 25 µM.

As to `COc1ccccc1C(=O)Nc1nc(-c2ccccc2OC)cs1` [compound 79], the “% Activity” value is “++ (“++” means between 25% to 100%)” and the EC50 was in the range of 10 to 25 µM.

For `COc1cccc(-c2csc(NC(=O)c3ccccc3OC)n2)c1` [compound 80], the “% Activity” value is recorded as “++ (“++” means between 25% to 100%)” and the EC50 is 10 to 25 µM.

As for `COc1cccc(-c2csc(NC(=O)c3ccccc3)n2)c1` [compound 81], the “% Activity” value is on record as “++ (“++” means between 25% to 100%)” and the EC50 lay within 10 to 25 µM.

Take `COc1cccc(C(=O)Nc2nc(-c3cccc(OC)c3)cs2)c1` [compound 82]: the “% Activity” value was “++ (“++” means between 25% to 100%)” and the half-maximal effective concentration (EC50) was 10 to 25 µM.

`COc1cccc(-c2csc(NC(=O)c3ccc(C)cc3)n2)c1` [compound 83]: the “% Activity” value was “+++ (“+++” means >100%)” and the 50% effective concentration (EC50) fell in the range of 10 to 25 µM.

With `COc1ccc(C(=O)Nc2nc(-c3cccc(OC)c3)cs2)cc1` [compound 84], the “% Activity” value is “++ (“++” means between 25% to 100%)” and the EC50 lay in the range of 10 to 25 µM.

Turning to `CC(C)C(=O)Nc1nc(-c2ccccc2)cs1` [compound 85], the “% Activity” value is reported as “++ (“++” means between 25% to 100%)” and the EC50 was 10 to 25 µM.

Consider `CC(C)CC(=O)Nc1nc(-c2ccccc2)cs1` [compound 86], for which the “% Activity” value is listed as “++ (“++” means between 25% to 100%)” and the half-maximal effective concentration (EC50) lay in the range of 10 to 25 µM.

With `CC(C)(C)C(=O)Nc1nc(-c2ccccc2)cs1` [compound 87], the “% Activity” value is recorded as “++ (“++” means between 25% to 100%)” and the half-maximal effective concentration (EC50) was 10 to 25 µM.

Regarding `Cc1cccc(C(=O)Nc2nc(-c3ccccc3)cs2)c1` [compound 88], the “% Activity” value is on record as “+++ (“+++” means >100%)” and the half-maximal effective concentration (EC50) was 10 to 25 µM.

With `O=C(Nc1ncc(Cc2ccccc2)s1)C1c2ccccc2Oc2ccccc21` [compound 89], the “% Activity” value is “+++ (“+++” means >100%)” and the EC50 is under 10 µM.

With `O=C(Nc1ncc(Cc2ccccc2Cl)s1)C1c2ccccc2Oc2ccccc21` [compound 90], the “% Activity” value is listed as “+++ (“+++” means >100%)” and the concentration for a half-maximal effect (EC50) was under 10 µM.

Regarding `O=C(Nc1ncc(Cc2ccccc2Cl)s1)C(c1ccccc1)C1CCCCC1` (centres unmarked) [compound 91], the “% Activity” value is given as “+++ (“+++” means >100%)” and the concentration giving a half-maximal response (EC50) was under 10 µM.

Regarding `O=C(Nc1ncc(Cc2ccccc2)o1)C(c1ccccc1)C1CCCCC1` (centres unmarked) [compound 92], the “% Activity” value is recorded as “++ (“++” means between 25% to 100%)” and the EC50 was under 10 µM.

As for `O=C(Nc1ncc(Cc2ccccc2)s1)C1c2ccccc2-c2ccccc21` [compound 93], the “% Activity” value is “+++ (“+++” means >100%)” and the EC50 is under 10 µM.

On to `O=C(Nc1ncc(Cc2ccccc2Cl)s1)C(c1ccc(Cl)cc1)c1ccc(Cl)cc1` [compound 95], for which the “% Activity” value is reported as “++ (“++” means between 25% to 100%)” and the EC50 was under 10 µM.

In the case of `CCC(C(=O)Nc1ncc(Cc2ccccc2)s1)c1ccccc1` (centres unmarked) [compound 96], the “% Activity” value was “++ (“++” means between 25% to 100%)” and the concentration giving a half-maximal response (EC50) fell in the range of 10 to 25 µM.

For the molecule `CCC(C(=O)Nc1ncc(Cc2ccccc2Cl)s1)c1ccccc1` (centres unmarked) [compound 97], the “% Activity” value is “+++ (“+++” means >100%)” and the concentration for a half-maximal effect (EC50) was under 10 µM.

With `CCC(C)C(C(=O)Nc1ncc(Cc2ccccc2)s1)c1ccccc1` (centres unmarked) [compound 98], the “% Activity” value is “++ (“++” means between 25% to 100%)” and the EC50 is under 10 µM.

Take `CCC(C)C(C(=O)Nc1ncc(Cc2ccccc2Cl)s1)c1ccccc1` (centres unmarked) [compound 99]: the “% Activity” value is on record as “+++ (“+++” means >100%)” and the EC50 was under 10 µM.

As to `CCC(C)C(C(=O)Nc1ncc(Cc2ccccc2)o1)c1ccccc1` (centres unmarked) [compound 100], the “% Activity” value is on record as “++ (“++” means between 25% to 100%)” and the EC50 lay in the range of 10 to 25 µM.

For `O=C(Nc1ncc(Cc2ccccc2)s1)C(c1ccccc1)C1CCCC1` (centres unmarked) [compound 101], the “% Activity” value is “++ (“++” means between 25% to 100%)” and the EC50 was under 10 µM.

For the molecule `O=C(Nc1ncc(Cc2ccccc2Cl)s1)C(c1ccccc1)C1CCCC1` (centres unmarked) [compound 102], the “% Activity” value was “+++ (“+++” means >100%)” and the EC50 is under 10 µM.

Regarding `CC(C)C(C(=O)Nc1ncc(Cc2ccccc2Cl)s1)c1ccccc1` (centres unmarked) [compound 103], the “% Activity” value is given as “+++ (“+++” means >100%)” and the EC50 is under 10 µM.

Broadly, the EC50 is the concentration that produces a half-maximal response.
